# Key:
# HEK293-type cells [1] = assay: Production (encapsidation) of the fully deleted helper virus independent Adenoviral vector fdhiAdGFP, read out as GFP-expressing cells after infection with supernatant; format: cell-based, human
# Excerpt: In the present example, the use of ascorbic acid composition exemplified by its used for the production of DNA virus, such as, but not limited to, a fully deleted helper virus independent Adenoviral vector. The vector production systems is comprised of three components (as exemplified in FIG. 1): (i) The GreVac module is packaged into the vector. It carries an expression cassette for a transgene, such as the green fluorescent protein, (cytomegalovirus immediate early promotor/enhancer / transgene / human growth hormone poly-adenylation sequence) flanked by ITRs and Ψ sequences, and is called fdhiAdGFP. […]
# HEK293-type cells were taken from the working cell bank and were cultured in an appropriate tissue culture vessel in an appropriate tissue culture medium both known by someone experienced in the art. […] Cell growth and density were monitored daily by light microscopy. […]
# To measure the efficiency of encapsidation, HEK293-type cells in culture were infected with defined volumes of the Adenoviral vector containing supernatants. […] Then they were harvested and examined for the extent of green fluorescence on a fluorescence activate cell analyzer (Beckman-Coulter Cytomics FC500) as an indicator of the number of infectious adenoviral particles released from the production cells.
# HEK293-type cells [2] = assay: Cellular DNA content by Vybrant staining and flow cytometry of cultured HEK293-type cells; format: cell-based, human; settings: ascorbic acid 5 µg/ml, 24 hrs of culture, versus culture in the absence of ascorbic acid
# Experimental: HEK293-type cells were taken from a working cell bank and were cultured in an appropriate tissue culture vessel in an appropriate tissue culture medium both known by a person skilled in the art. They were expanded at appropriate conditions, such 37° C., 5% CO2. Cell growth and density was monitored daily. One day after cellular confluency was reached the cells were harvested by methods known by a person skilled in the art. The harvested HEK293-type cells were diluted in tissue culture medium and reseeded in an appropriate tissue culture vessel in and appropriate tissue culture medium. To one set of HEK293-type cells ascorbic acid was added at a final concentration of 5 µg/ml. After 24 hrs of culture, the cells were harvested and stained for DNA content by Vybrant (Invitrogen) following the manufacturers protocols. The cells were analyzed by fluorescence on a fluorescence activate cell analyzer (Beckman-Coulter Cytomics FC500).
smiles,measurement,setting,value
O=C1O[C@H]([C@@H](O)CO)C(O)=C1O [ascorbic acid],rate of encapsidation of a gene transfer vector,"HEK293-type cells [1]; ascorbic acid added to production cells, conclusion from the studies",increased the rate of encapsidation
same,number of infected (GFP-expressing) cells after infection with Adenoviral vector containing supernatant,"HEK293-type cells [1]; production cells with ascorbic acid 5 µg/ml, 5 days of production, transduced cells read after 2 days, versus no ascorbic acid",significantly larger number of infected cells
same,levels of DNA content in cells,HEK293-type cells [2],increased levels of DNA
same,percentage of cells in the S and G2 stages of the cell cycle,HEK293-type cells [2],a larger percentage of cells had entered the S and G2 stages of the cell cycle

# — patent US20230036911A1, “CULTURE SYSTEMS FOR THE EFFICIENT PRODUCTION OF GENE TRANSFER VECTORS” (Greffex, Inc., priority 2019, published 2023)
